In ChEMBL document CHEMBL4382204 (Eur J Med Chem, 2018):

How the values were obtained:
[1] = Antiproliferative activity in mouse BAF3 cells after 72 hrs by CCK8 assay; format: cell-based
[2] = molecular target: Bcr/Abl fusion protein (Homo sapiens) (UniProt P00519+P11274); details: BaF3
Description: Inhibition of wild type BCR/ABL (unknown origin) transfected in mouse BAF3 cells assessed as growth inhibition after 72 hrs by CCK8 assay

[3] = test system: Bcr/Abl fusion protein (Homo sapiens), P00519+P11274 [T315I]; details: BaF3
MEG-01 = assay: Antiproliferative activity in human MEG01 cells after 72 hrs by CCK8 assay; format: functional; details: MEG-01, 72 h
HL-60 = assay: Antiproliferative activity in human HL60 cells after 72 hrs by CCK8 assay; format: functional; details: HL-60, 72 h
U-937 = assay: Antiproliferative activity in human U937 cells after 72 hrs by CCK8 assay; format: functional; details: U-937, 72 h
MEC1 = assay: Antiproliferative activity in human MEC1 cells after 72 hrs by CCK8 assay; format: functional; details: MEC1, 72 h
KU812 cell line = assay: Antiproliferative activity in human KU812 cells after 72 hrs by CCK8 assay; format: functional; details: KU812, 72 h
[4] = Antiproliferative activity in CHO cells after 72 hrs by CCK8 assay; format: cell-based, Cricetulus griseus; details: chinese hamster
K562 = assay: Antiproliferative activity in human K562 cells after 72 hrs by CCK8 assay; format: functional; details: K562, 72 h
OCI-AML2 = assay: Antiproliferative activity in human OCI-AML2 cells after 72 hrs by CCK8 assay; format: functional; details: OCI-AML2, 72 h
BaF3 = assay: Antitumor activity against mouse BAF3 cells expressing BCR/ABL T315I mutant allografted in nu/nu mouse assessed as tumor weight at 100 mg/kg, po administered via gavage measured for 14 days (reference value: 2.78 g); format: functional
[5] = Selectivity ratio of GI50 for mouse BAF3 cells to GI50 for BCR/ABL T315I mutant (unknown origin) transfected in mouse BAF3 cells
[6] = Selectivity ratio of GI50 for mouse BAF3 cells to GI50 for wild type BCR/ABL (unknown origin) transfected in mouse BAF3 cells

Sequence of Bcr/Abl fusion protein (Homo sapiens) (P00519 whole entry, looked up, the tested form may be a part): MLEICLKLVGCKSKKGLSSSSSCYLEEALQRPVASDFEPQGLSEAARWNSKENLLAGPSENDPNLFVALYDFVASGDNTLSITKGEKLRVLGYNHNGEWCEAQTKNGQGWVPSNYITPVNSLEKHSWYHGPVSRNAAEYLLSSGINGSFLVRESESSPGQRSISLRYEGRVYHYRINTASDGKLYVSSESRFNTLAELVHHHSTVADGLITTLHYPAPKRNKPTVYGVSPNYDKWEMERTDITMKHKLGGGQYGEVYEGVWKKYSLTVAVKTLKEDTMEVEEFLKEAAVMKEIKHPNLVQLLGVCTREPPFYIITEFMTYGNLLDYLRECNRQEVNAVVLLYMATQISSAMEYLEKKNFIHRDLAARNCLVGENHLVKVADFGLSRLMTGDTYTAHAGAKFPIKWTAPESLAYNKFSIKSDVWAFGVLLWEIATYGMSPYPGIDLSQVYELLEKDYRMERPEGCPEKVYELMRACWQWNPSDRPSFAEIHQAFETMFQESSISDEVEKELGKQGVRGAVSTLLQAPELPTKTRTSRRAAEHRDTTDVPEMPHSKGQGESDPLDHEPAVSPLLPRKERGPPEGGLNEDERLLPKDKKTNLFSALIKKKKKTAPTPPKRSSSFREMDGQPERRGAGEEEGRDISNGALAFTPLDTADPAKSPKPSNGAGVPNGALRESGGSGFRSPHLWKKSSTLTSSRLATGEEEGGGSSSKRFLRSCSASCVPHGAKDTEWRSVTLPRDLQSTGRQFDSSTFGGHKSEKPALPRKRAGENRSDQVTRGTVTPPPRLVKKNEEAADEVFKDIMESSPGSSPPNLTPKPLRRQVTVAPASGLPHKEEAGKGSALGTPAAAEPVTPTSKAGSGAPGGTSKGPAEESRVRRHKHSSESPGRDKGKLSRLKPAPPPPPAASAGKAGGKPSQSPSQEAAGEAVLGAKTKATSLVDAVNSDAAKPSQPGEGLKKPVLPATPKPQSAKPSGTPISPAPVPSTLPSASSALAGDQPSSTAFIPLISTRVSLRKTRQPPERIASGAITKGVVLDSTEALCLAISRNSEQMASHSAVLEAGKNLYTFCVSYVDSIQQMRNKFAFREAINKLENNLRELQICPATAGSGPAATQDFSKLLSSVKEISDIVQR
Sequence of Bcr/Abl fusion protein (Homo sapiens) (P11274 whole entry, looked up, the tested form may be a part): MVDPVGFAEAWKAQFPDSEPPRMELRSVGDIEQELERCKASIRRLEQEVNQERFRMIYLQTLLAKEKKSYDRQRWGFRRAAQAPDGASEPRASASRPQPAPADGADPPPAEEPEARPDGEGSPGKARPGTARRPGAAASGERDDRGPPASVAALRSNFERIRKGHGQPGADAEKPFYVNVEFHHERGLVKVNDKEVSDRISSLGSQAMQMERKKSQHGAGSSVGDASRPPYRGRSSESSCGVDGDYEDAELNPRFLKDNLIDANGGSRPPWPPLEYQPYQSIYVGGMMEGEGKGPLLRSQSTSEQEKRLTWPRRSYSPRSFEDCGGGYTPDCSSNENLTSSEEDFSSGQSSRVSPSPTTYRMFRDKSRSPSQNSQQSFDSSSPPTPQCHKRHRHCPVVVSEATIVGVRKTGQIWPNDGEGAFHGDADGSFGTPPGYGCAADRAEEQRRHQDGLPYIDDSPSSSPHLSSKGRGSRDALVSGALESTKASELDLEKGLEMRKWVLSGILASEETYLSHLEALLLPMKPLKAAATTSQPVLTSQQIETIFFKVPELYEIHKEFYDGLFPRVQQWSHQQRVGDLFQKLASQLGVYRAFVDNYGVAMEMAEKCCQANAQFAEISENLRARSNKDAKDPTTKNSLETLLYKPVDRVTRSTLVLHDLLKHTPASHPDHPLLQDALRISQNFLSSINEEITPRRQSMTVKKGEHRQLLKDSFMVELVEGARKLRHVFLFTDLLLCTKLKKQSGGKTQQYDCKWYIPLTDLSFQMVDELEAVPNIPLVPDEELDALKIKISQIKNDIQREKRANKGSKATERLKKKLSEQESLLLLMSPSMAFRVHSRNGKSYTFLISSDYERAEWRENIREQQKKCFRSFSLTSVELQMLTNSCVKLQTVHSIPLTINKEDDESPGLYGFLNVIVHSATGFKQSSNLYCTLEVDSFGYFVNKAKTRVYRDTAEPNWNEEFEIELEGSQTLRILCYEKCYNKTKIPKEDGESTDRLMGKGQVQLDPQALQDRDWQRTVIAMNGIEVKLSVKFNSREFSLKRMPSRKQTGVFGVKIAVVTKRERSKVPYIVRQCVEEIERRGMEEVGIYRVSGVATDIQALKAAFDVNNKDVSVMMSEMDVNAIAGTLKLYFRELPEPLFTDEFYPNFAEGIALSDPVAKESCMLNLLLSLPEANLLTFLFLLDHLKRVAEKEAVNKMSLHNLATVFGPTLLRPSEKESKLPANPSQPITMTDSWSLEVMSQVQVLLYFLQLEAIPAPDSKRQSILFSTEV

| Compound | GI50 at 72 h [1] [nM] | GI50 [2] [nM] | GI50 [3] [nM] | also measured |
| --- | --- | --- | --- | --- |
| Cc1n[nH]c2cc(SCCC(=O)Nc3ccc(CN4CCN(C)CC4)c(C(F)(F)F)c3)ccc12 | 3900 | 330 | 170 | – |
| CN1CCN(Cc2ccc(NC(=O)CCSc3ccc4c(-c5cnn(C)c5)n[nH]c4c3)cc2C(F)(F)F)CC1 | 1400 | 15 | 20 | – |
| CC1CCN(Cc2ccc(NC(=O)CCSc3ccc4c(/C=C/c5ccccn5)n[nH]c4c3)cc2C(F)(F)F)CC1 | 4170 | 1980 | 1750 | – |
| CNC(=O)CCSc1ccc2c(/C=C/c3ccccn3)n[nH]c2c1 | > 10000 | > 10000 | > 10000 | – |
| CNC(=O)c1ccccc1Sc1ccc2c(/C=C/c3ccccn3)n[nH]c2c1 [AXITINIB] | 1640 | – | – | GI50 (MEG-01): 970 nM; GI50 (HL-60): 6780 nM; GI50 (U-937): 1980 nM; GI50 (MEC1): 1540 nM; GI50 (KU812 cell line): 500 nM; GI50 at 72 h [4]: > 10000 nM; GI50 (K562): 940 nM; GI50 (OCI-AML2): 2360 nM |
| O=C(CCSc1ccc2c(/C=C/c3ccccn3)n[nH]c2c1)Nc1ccc(CN2CCOCC2)c(C(F)(F)F)c1 | 3970 | 160 | 210 | – |
| COc1ccc(NC(=O)CCSc2ccc3c(/C=C/c4ccccn4)n[nH]c3c2)cc1C(F)(F)F | > 10000 | 590 | 860 | – |
| Cc1cccc(NC(=O)CCSc2ccc3c(/C=C/c4ccccn4)n[nH]c3c2)c1 | > 10000 | 3150 | 4030 | – |
| O=C(CCSc1ccc2c(/C=C/c3ccccn3)n[nH]c2c1)Nc1cccc(Cl)c1 | 9350 | 1560 | 2910 | – |
| O=C(CCSc1ccc2c(/C=C/c3ccccn3)n[nH]c2c1)Nc1ccccc1 | 690 | 500 | 510 | – |
| CN1CCN(Cc2ccc(C(=O)NCCSc3ccc4c(/C=C/c5ccccn5)n[nH]c4c3)cc2C(F)(F)F)CC1 | 4800 | 750 | 930 | – |
| CN1CCN(Cc2ccc(NC(=O)CCSc3ccc4c(-c5ccccc5)n[nH]c4c3)cc2C(F)(F)F)CC1 | 600 | 32 | 110 | – |
| O=C(CCSc1ccc2c(/C=C/c3ccccn3)n[nH]c2c1)Nc1ccc(Cl)c(C(F)(F)F)c1 | > 10000 | 2710 | 2670 | – |
| O=C(NCCSc1ccc2c(/C=C/c3ccccn3)n[nH]c2c1)c1cccc(C(F)(F)F)c1 | 1500 | 2720 | 1620 | – |
| COc1cccc(NC(=O)CCSc2ccc3c(/C=C/c4ccccn4)n[nH]c3c2)c1 | 3840 | 3220 | 3210 | – |
| CN1CCN(Cc2ccc(NC(=O)CCSc3ccc4c(-c5ccncc5)n[nH]c4c3)cc2C(F)(F)F)CC1 | 1060 | 38 | 18 | – |
| O=C(NCCCSc1ccc2c(/C=C/c3ccccn3)n[nH]c2c1)c1cccc(C(F)(F)F)c1 | 980 | 500 | 650 | – |

| Compound | GI50 at 72 h [1] [nM] | GI50 [2] [nM] | GI50 [3] [nM] | also measured |
| --- | --- | --- | --- | --- |
| O=C(CCSc1ccc2c(/C=C/c3ccccn3)n[nH]c2c1)Nc1ccc(F)c(C(F)(F)F)c1 | 610 | 300 | 120 | – |
| CN1CCN(Cc2ccc(NC(=O)CCSc3ccc4c(-c5cccnc5)n[nH]c4c3)cc2C(F)(F)F)CC1 | 2650 | 70 | 58 | – |
| Cc1ccc(NC(=O)CCSc2ccc3c(/C=C/c4ccccn4)n[nH]c3c2)cc1 | > 10000 | 2870 | 4490 | – |
| O=C(CCSc1ccc2c(/C=C/c3ccccn3)n[nH]c2c1)Nc1cccc(C(F)(F)F)c1 | 2300 | 900 | 280 | – |
| Cc1ccc(NC(=O)c2ccc(CN3CCN(C)CC3)cc2)cc1Nc1nccc(-c2cccnc2)n1 [IMATINIB] | > 10000 | – | – | GI50 (MEG-01): 280 nM; GI50 (HL-60): > 10000 nM; GI50 (U-937): > 10000 nM; GI50 (MEC1): > 10000 nM; Activity (BaF3): 3.36 g; GI50 (KU812 cell line): 310 nM; GI50 at 72 h [4]: > 10000 nM; GI50 (K562): 250 nM; GI50 (OCI-AML2): > 10000 nM |
| Cc1ccc(-c2n[nH]c3cc(SCCC(=O)Nc4ccc(CN5CCN(C)CC5)c(C(F)(F)F)c4)ccc23)cn1 | 1180 | 91 | 49 | – |
| CCN1CCN(Cc2ccc(NC(=O)CCSc3ccc4c(/C=C/c5ccccn5)n[nH]c4c3)cc2C(F)(F)F)CC1 | 840 | 4 | 4 | RatioGI50 [5]: 200; RatioGI50 [6]: 200 |
| O=C(CCSc1ccc2c(/C=C/c3ccccn3)n[nH]c2c1)Nc1ccc(CN2CCCC2)c(C(F)(F)F)c1 | 4000 | 150 | 120 | – |
| CN1CCN(c2cccc(NC(=O)CCSc3ccc4c(/C=C/c5ccccn5)n[nH]c4c3)c2)CC1 | > 10000 | 8240 | 8180 | – |
| CN1CCN(Cc2ccc(NC(=O)NCCSc3ccc4c(/C=C/c5ccccn5)n[nH]c4c3)cc2C(F)(F)F)CC1 | 3100 | 180 | 240 | – |
| O=C(CCSc1ccc2c(/C=C/c3ccccn3)n[nH]c2c1)Nc1cccc(F)c1 | 6590 | 1510 | 1990 | – |
| CN(C)c1cccc(NC(=O)CCSc2ccc3c(/C=C/c4ccccn4)n[nH]c3c2)c1 | > 10000 | 9670 | 5520 | – |
| CN(C)CCN(C)Cc1ccc(NC(=O)CCSc2ccc3c(/C=C/c4ccccn4)n[nH]c3c2)cc1C(F)(F)F | 1850 | 110 | 110 | – |
| CN1CCN(Cc2ccc(C(=O)NCCCSc3ccc4c(/C=C/c5ccccn5)n[nH]c4c3)cc2C(F)(F)F)CC1 | 4400 | 22 | 330 | – |
| O=C(NCCSc1ccc2c(/C=C/c3ccccn3)n[nH]c2c1)Nc1cccc(C(F)(F)F)c1 | 3000 | 2740 | 2060 | – |
| O=C(CCSc1ccc2c(/C=C/c3ccccn3)n[nH]c2c1)NCc1cccc(C(F)(F)F)c1 | 8030 | 3390 | 7050 | – |
| Cc1ccc(NC(=O)CCSc2ccc3c(/C=C/c4ccccn4)n[nH]c3c2)cc1C(F)(F)F | 530 | 160 | 88 | – |
